Measured values published in US4412998A, “Certain 4-(1-piperidino)-phenyl-nicotinates” (Merz & Company, priority 1979, dated 1983).

Assays:
[1] = Cholesterol reduction in rats on high-fat diet; format: in vivo, female Wistar rats; details: Rattus norvegicus, read-out: Chol. Red. in %
Method: (§1) Additionally, experiments on female Wistar rats were carried out. For a period of 3 weeks the animals received a special diet with a very high fat content. Starting from the second week, half the rats were treated with a dosage of 100 and 25 mg/kg body weight. After the third week blood samples were taken 18 hours after administration of the last dose. Triglyceride and cholesterol concentrations were compared with that of the untreted animals. Cholesterol and triglycerides were determined with the aid of the Boehringer enzymatic test.

[2] = Triglyceride reduction in rats on high-fat diet; format: in vivo, female Wistar rats; details: Rattus norvegicus, high fat diet 3 weeks, blood 18 hours after last dose, read-out: Triglyc. Red. in %
Method: as §1

ED50 in rat (Table 1) = format: in vivo
in vivo = details: rat
[3] = cited from earlier work; for reduction of free fatty acids (in words): test animals, low dosage between 0.5 and 30 mg/kg body weight
[4] = 100 mg/kg, high fat diet 3 weeks, blood 18 hours after last dose
[5] = high fat diet 3 weeks, blood 18 hours after last dose

Compound | inhibition in vivo at 100 mg/kg [1, 4] | inhibition in vivo at 100 mg/kg [2] | ED50 (ED50 in rat (Table 1)) | LD50 (in vivo) | selectivity ratio (in vivo) | further results
O=C(Oc1ccc(C2CCCCC2)cc1)c1cccnc1 [Example 1, p-cyclohexylphenyl nicotinate] | 45% | 19% | 50 mg/kg | 2200 mg/kg | 44 | 
CC(C)(Oc1ccc(Cl)cc1)C(=O)OCc1cccnc1 [3-pyridyl carbinol ester of clofibric acid] |  |  |  |  |  | influence on lipids (in words) ([3]; background): effective lipid- and cholesterol-lowering component
CC(C)(c1ccccc1)c1ccc(OC(=O)c2cccnc2)cc1 [Example 9, p-cumylphenyl nicotinate] | 24% | 1% |  |  |  | 
O=C(O)c1cccnc1 [Nicotinic acid, nicotinic acid, reference compound] |  |  | ~500 mg/kg | 4000 mg/kg | 8 | inhibition in vivo at 100 mg/kg ([1]; 18 h): 7%; influence on lipids (in words) ([3]; background): act predominantly on elevated cholesterol values and free fatty acids; side effects (in words) ([3]; background): flush, headache, nausea, vomiting; reduction of free fatty acids (in words) [3]: great reduction of the free fatty acids
O=C(Oc1ccc(C23CC4CC(CC(C4)C2)C3)cc1)c1cccnc1 [Example 2, p-(1-adamantylphenyl)-nicotinate] | 28% | 47% | 68 mg/kg | 3200 mg/kg | 47 | 
O=C(Oc1ccc(C(=O)c2ccc(Cl)cc2)cc1)c1cccnc1 [Example 10, p-chlorobenzoylphenyl nicotinate] | 29% |  |  |  |  | 
Cl.O=C(Oc1ccccc1C1CCCCC1)c1cccnc1 [Example 6, o-cyclohexylphenyl nicotinate hydrochloride] |  |  | 22 mg/kg | 2050 mg/kg | 93 | inhibition in vivo at 25 mg/kg [1, 5]: 18%; inhibition in vivo at 25 mg/kg [2]: 16%
CC(C)(C)c1cc(C2CCCCC2)ccc1OC(=O)c1cccnc1 [Example 8, 2-t-butyl-4-cyclohexylphenyl nicotinate] |  |  | 30 mg/kg | 1700 mg/kg | 56 | inhibition in vivo at 25 mg/kg [1, 5]: 9%; inhibition in vivo at 25 mg/kg [2]: 8%
CC(C)(Oc1ccc(Cl)cc1)C(=O)Oc1ccc(C(=O)CC23CC4CC(CC(C4)C2)C3)cc1 [Example 3, 2-(p-chlorophenoxy)-isobutyric acid-p-(1-adamantylacetyl)-phenyl ester] | 27% | 35% |  |  |  | 
OCc1cccnc1 [3-pyridyl carbinol] |  |  |  |  |  | reduction of free fatty acids (in words) [3]: great reduction of the free fatty acids
CCOC(=O)C(C)(C)Oc1ccc(Cl)cc1 [clofibrate, ethyl ester of 2-(p-chlorophenoxy)-isobutyric acid, reference compound] |  | 8% | ~300 mg/kg | 1500 mg/kg |  | cases with cholesterol (CH) in the β- and α-lipoproteins further increased ([3]; in vivo): about 20%; fall of the initial values of triglycerides (TG) and pre-β-lipoproteins ([3]; in vivo): up to 50%
O=C(Oc1cccc2c1CCCC2)c1cccnc1 [Example 7, 5,6,7,8-Tetrahydro-1-naphthyl-nicotinate] | 22% | 18% |  |  |  | 
